The source of these data is PMC8230315, “A Pan-Inhibitor for Protein Arginine Methyltransferase Family Enzymes” (Biomolecules, 2021).

The structures appear in SMILES notation. Like-named read-outs stand apart in the source and are kept apart here.

Experiment [1] addresses T1, PRMT1 (Homo sapiens, UniProt Q99873). Kind of experiment: SAHH-coupled fluorescence assay, PRMT1 inhibition. Format: biochemical. As to conditions: for IC50: PRMT1 0.1 µM, n = 2, mean ± SD; for Ki: calculated as Ki, app = IC50/(1 + [S]/Km), read-out: Ki, app. As for the experimental part: A fluorescence-based SAHH-coupled assay was used to evaluate the IC50 values of inhibitors by monitoring the production of SAH from SAM after methylation. […] The fluorescence signal was monitored on a BMG CLARIOstar microplate reader with excitation at 400 nm and emission at 465 nm for 18 min. Data were processed using GraphPad Prism software 7.0. All experiments were performed in duplicate.
The fluorescence signal was monitored on a BMG CLARIOstar microplate reader with excitation at 400 nm and emission at 465 nm for 18 min. Data were processed using GraphPad Prism software 7.0. All experiments were performed in duplicate. […].

Another experiment deals with T2, SETD7 (Homo sapiens, UniProt Q8WTS6).
T2 construct: made in house
T2 sequence (Q8WTS6 1-366): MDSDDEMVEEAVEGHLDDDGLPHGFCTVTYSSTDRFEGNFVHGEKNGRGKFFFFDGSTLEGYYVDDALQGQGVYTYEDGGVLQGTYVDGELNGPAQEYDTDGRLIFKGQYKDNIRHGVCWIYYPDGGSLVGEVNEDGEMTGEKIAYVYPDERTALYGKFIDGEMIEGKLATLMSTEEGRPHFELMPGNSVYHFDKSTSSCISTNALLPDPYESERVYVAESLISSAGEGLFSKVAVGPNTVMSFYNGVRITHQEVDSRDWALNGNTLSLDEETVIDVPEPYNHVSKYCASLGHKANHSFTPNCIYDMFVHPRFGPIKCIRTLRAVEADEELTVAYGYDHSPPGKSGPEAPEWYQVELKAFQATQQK
Kind of experiment: Selectivity SAHH-coupled fluorescence assay, SETD7. Format: biochemical. As to conditions: at 100 μM. The text has this:
(§1) We chose the top four potent compounds (6b and 6l–n) to investigate their selectivities against several in-house methyltransferases including protein arginine methyltransferase TbPRMT7, two members of the protein lysine methyltransferase PKMT (G9a and SETD7), protein N-terminal methyltransferase 1 (NTMT1), and a small molecule methyltransferase nicotinamide N-methyltransferase (NNMT), all of which have a SAM binding site.
A fluorescence-based SAHH-coupled assay was applied to study the effect of the compound on methyltransferase activity of PRMT7, NTMT1, SETD7, G9a, NNMT, and SAHH. For PRMT7, the assay was performed in a final well volume of 100 μL: 25 mM Tris (pH = 7.5), 50 mM KCl, 0.01% Triton X-100, 5 μM SAHH, 0.2 μM PRMT7, 3 μM AdoMet, and 15 μM ThioGlo1. After incubation for 10 min with the inhibitor, reactions were initiated by the addition of 60 μM H4-21 peptide, and the reaction was monitored for 15 min. For NTMT1, the assay was performed in a final well volume of 100 μL: 25 mM Tris (pH = 7.5), 50 mM KCl, 0.01% Triton X-100, 5 μM SAHH, 0.1 μM NTMT1, 3 μM AdoMet, and 10 μM ThioGlo4. After incubation for 10 min with the inhibitor, reactions were initiated by the addition of 0.5 μM GPKRIA peptide, and the reaction was monitored for 15 min. For SETD7, the assay was performed in a final well volume of 100 μL: 25 mM potassium phosphate buffer (pH = 7.6), 0.01% Triton X-100, 5 μM SAHH, 1 μM SETD7, 2 μM AdoMet, and 10 μM ThioGlo1. After incubation for 10 min with the inhibitor, reactions were initiated by the addition of 90 μM H3-21 peptide, and the reaction was monitored for 15 min. For G9a, the assay was performed in a final well volume of 100 μL: 25 mM potassium phosphate buffer (pH = 7.6), 1 mM EDTA, 2 mM MgCl2, 0.01% Triton X-100, 5 μM SAHH, 0.1 μM His-G9a, 10 μM AdoMet, and 10 μM ThioGlo4. For NNMT, the assay was performed in a final well volume of 100 μL: 25 mM Tris (pH = 7.5), 50 mM KCl, 0.01% Triton X- 100, 5 μM SAHH, 0.1 μM NNMT, 10 μM AdoMet, and 10 μM ThioGlo1. After incubation for 10 min with the inhibitor, reactions were initiated by the addition of 10 μM nicotinamide, and the reaction was monitored for 18 min. The inhibitors were added at five concentrations: 100, 33.3, 11.1, 3.7, and 1.2 μM.

Another experiment concerns the target T3, TbPRMT7 (Trypanosoma brucei brucei, UniProt Q582G4).
T3 construct: made in house
Kind of experiment: Selectivity SAHH-coupled fluorescence assay, TbPRMT7. The format is biochemical. As to conditions: at 11.1 μM.
Text: as §1
A fluorescence-based SAHH-coupled assay was applied to study the effect of the compound on methyltransferase activity of PRMT7, NTMT1, SETD7, G9a, NNMT, and SAHH. For PRMT7, the assay was performed in a final well volume of 100 μL: 25 mM Tris (pH = 7.5), 50 mM KCl, 0.01% Triton X-100, 5 μM SAHH, 0.2 μM PRMT7, 3 μM AdoMet, and 15 μM ThioGlo1. After incubation for 10 min with the inhibitor, reactions were initiated by the addition of 60 μM H4-21 peptide, and the reaction was monitored for 15 min. […] After incubation for 10 min with the inhibitor, reactions were initiated by the addition of 0.5 μM GPKRIA peptide, and the reaction was monitored for 15 min. […] After incubation for 10 min with the inhibitor, reactions were initiated by the addition of 90 μM H3-21 peptide, and the reaction was monitored for 15 min. […] After incubation for 10 min with the inhibitor, reactions were initiated by the addition of 10 μM nicotinamide, and the reaction was monitored for 18 min. […]

The target in experiment [2] is T1, PRMT1. As to conditions: cited from earlier work.
The subject of a further experiment is PRMT5/MEP50. Set-up: method as in doi:10.1158/1538-7445.AM2018-4859. The settings on record: cited from earlier work.
A further experiment addresses T4, PRMT4 (Homo sapiens, UniProt Q86X55).
T4 construct: purchased Reaction Biology
T4 sequence (Q86X55 1-608): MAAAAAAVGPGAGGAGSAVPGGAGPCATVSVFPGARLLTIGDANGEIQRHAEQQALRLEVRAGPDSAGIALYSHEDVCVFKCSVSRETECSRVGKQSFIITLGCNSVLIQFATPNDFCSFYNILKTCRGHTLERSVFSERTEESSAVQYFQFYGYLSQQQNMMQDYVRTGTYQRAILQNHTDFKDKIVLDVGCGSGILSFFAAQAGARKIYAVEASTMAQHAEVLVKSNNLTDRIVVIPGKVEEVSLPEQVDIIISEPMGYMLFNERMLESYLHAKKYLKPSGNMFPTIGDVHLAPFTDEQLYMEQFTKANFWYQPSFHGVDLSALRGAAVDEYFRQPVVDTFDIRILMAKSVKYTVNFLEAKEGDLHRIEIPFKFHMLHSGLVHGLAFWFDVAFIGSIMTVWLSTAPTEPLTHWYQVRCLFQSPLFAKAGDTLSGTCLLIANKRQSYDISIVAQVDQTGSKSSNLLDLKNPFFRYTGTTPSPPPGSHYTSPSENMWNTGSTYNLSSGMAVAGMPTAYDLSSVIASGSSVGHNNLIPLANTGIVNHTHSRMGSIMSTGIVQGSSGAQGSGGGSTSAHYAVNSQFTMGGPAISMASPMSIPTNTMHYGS
As to conditions: cited from earlier work.

Setting [3] is: at Km of SAM (10 µM) and H4-21 peptide (5 µM).
Where [4] appears, read: substrate concentration at 4 Km (footnote a).

T1 sequence (Q99873 whole entry, species assumed): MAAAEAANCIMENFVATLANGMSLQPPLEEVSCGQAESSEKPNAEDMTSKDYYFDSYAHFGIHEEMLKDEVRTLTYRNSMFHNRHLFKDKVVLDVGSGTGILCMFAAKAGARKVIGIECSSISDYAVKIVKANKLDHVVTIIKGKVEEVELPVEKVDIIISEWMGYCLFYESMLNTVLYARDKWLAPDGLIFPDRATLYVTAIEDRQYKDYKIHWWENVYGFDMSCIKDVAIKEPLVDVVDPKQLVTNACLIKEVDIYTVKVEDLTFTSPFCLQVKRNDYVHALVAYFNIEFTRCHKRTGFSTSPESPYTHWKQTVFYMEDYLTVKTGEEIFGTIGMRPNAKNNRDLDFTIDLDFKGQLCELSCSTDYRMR
T3 sequence (Q582G4 whole entry): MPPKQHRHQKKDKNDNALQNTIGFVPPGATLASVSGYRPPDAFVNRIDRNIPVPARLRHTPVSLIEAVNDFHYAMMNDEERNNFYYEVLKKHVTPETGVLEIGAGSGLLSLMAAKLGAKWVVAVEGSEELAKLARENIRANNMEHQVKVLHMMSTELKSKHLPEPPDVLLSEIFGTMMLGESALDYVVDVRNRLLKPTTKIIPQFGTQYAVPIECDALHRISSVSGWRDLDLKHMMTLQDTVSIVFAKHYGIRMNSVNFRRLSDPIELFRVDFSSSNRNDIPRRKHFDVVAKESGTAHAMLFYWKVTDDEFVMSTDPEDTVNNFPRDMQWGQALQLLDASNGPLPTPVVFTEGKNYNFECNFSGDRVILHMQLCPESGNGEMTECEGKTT

`N=C(NCCCSC[C@H]1O[C@@H](n2cnc3c(N)ncnc32)[C@H](O)[C@@H]1O)NCCCc1ccccc1` [Compound 6i, 1-(3-((((2S,3S,4R,5R)-5-(6-amino-9H-purin-9-yl)-3,4-dihydroxytetrahydrofuran-2-yl)methyl)thio)propyl)-3-(3-phenylpropyl)guanidine]: at PRMT1 [1] (setting [3]), it took 0.33 ± 0.11 µM to reach half-maximal inhibition (IC50). Moreover, the Ki on PRMT1 [1] is 0.17 ± 0.055 µM.

On to `N=C(NCCCSC[C@H]1O[C@@H](n2cnc3c(N)ncnc32)[C@H](O)[C@@H]1O)NCCc1ccccc1` [Compound 6h, 1-(3-((((2S,3S,4R,5R)-5-(6-amino-9H-purin-9-yl)-3,4-dihydroxytetrahydrofuran-2-yl)methyl)thio)propyl)-3-phenethylguanidine], for which, on PRMT1 [1] (setting [3]), inhibition was half-maximal at 0.21 ± 0.06 µM (IC50). In addition, the Ki on PRMT1 [1] is 0.11 ± 0.03 µM.

Consider `N=C(NCCCSC[C@H]1O[C@@H](n2cnc3c(N)ncnc32)[C@H](O)[C@@H]1O)Nc1ccccc1[N+](=O)[O-]` [Compound 6j, 1-(3-((((2S,3S,4R,5R)-5-(6-amino-9H-purin-9-yl)-3,4-dihydroxytetrahydrofuran-2-yl)methyl)thio)propyl)-3-(2-nitrophenyl)guanidine], for which the IC50 against PRMT1 [1] (setting [3]) is 0.21 ± 0.01 µM. On PRMT1 [1], the Ki is 0.11 ± 0.005 µM.

In the case of `N=C(NCCCSC[C@H]1O[C@@H](n2cnc3c(N)ncnc32)[C@H](O)[C@@H]1O)Nc1ccc(Br)cc1` [Compound 6m, 1-(3-((((2S,3S,4R,5R)-5-(6-amino-9H-purin-9-yl)-3,4-dihydroxytetrahydrofuran-2-yl)methyl)thio)propyl)-3-(4-bromophenyl)guanidine], the IC50 against PRMT1 [1] (setting [4]) was determined as 0.29 ± 0.04 µM. In addition, the Ki on PRMT1 [1] is 0.058 ± 0.007 µM. Besides, the inhibition at 100 µM against SETD7 was > 50%.

On PRMT1 [1] (setting [3]), `N=C(NCCCSC[C@H]1O[C@@H](n2cnc3c(N)ncnc32)[C@H](O)[C@@H]1O)Nc1ccccc1` [Compound 6f, 1-(3-((((2S,3S,4R,5R)-5-(6-amino-9H-purin-9-yl)-3,4-dihydroxytetrahydrofuran-2-yl)methyl)thio)propyl)-3-phenylguanidine] showed a concentration for half-maximal inhibition (IC50) of 0.29 ± 0.01 µM. The Ki at PRMT1 [1] is 0.15 ± 0.005 µM. In addition, the “fold reduction of PRMT1 inhibition compared to 6d” value at PRMT1 [1] (ratio of IC50 values) is recorded as “about 2.5 fold”.

`N=C(NCCCSC[C@H]1O[C@@H](n2cnc3c(N)ncnc32)[C@H](O)[C@@H]1O)NCc1ccccc1` [Compound 6g, 1-(3-((((2S,3S,4R,5R)-5-(6-amino-9H-purin-9-yl)-3,4-dihydroxytetrahydrofuran-2-yl)methyl)thio)propyl)-3-benzylguanidine] came in with an IC50 against PRMT1 [1] (setting [3]) of 0.72 ± 0.15 µM. Also, the Ki on PRMT1 [1] is 0.36 ± 0.075 µM.

Compound `N=C(NCCCSC[C@H]1O[C@@H](n2cnc3c(N)ncnc32)[C@H](O)[C@@H]1O)NC1CCC1` [Compound 6b, 1-(3-((((2S,3S,4R,5R)-5-(6-amino-9H-purin-9-yl)-3,4-dihydroxytetrahydrofuran-2-yl)methyl)thio)propyl)-3-cyclobutylguanidine] gave an IC50 against PRMT1 [1] (setting [4]) of 0.23 ± 0.02 µM. Moreover, the Ki at PRMT1 [1] is 0.045 ± 0.005 µM. Moreover, the “inhibitory activity against PRMT7” value against TbPRMT7 was “no inhibitory activity”. On SETD7, the inhibition at 100 µM was > 50%.

For the compound `N=C(N)NCCCCN(CCC(N)C(=O)O)C[C@H]1O[C@@H](n2cnc3c(N)ncnc32)[C@H](O)[C@@H]1O` (some centres unmarked) [JD-16], the concentration for half-maximal inhibition (IC50) at PRMT1 [2] is 3 µM.

Turning to `CCNC(=N)NCCCSC[C@H]1O[C@@H](n2cnc3c(N)ncnc32)[C@H](O)[C@@H]1O` [Compound 6a, 1-(3-((((2S,3S,4R,5R)-5-(6-amino-9H-purin-9-yl)-3,4-dihydroxytetrahydrofuran-2-yl)methyl)thio)propyl)-3-ethylguanidine], at PRMT1 [1] (setting [3]), the IC50 is 0.62 ± 0.08 µM. In addition, the Ki on PRMT1 [1] was 0.31 ± 0.04 µM.

`Nc1nc2cc(CC[C@H]3C[C@@H](n4ccc5c(N)ncnc54)[C@H](O)[C@@H]3O)ccc2cc1Br` [JNJ-64619178]: the IC50 with PRMT5/MEP50 is […].

For the compound `CCCNC(CCC(N)C(=O)O)C[C@H]1O[C@@H](n2cnc3c(N)ncnc32)[C@H](O)[C@@H]1O` (some centres unmarked) [Pr-SNF], on PRMT4, the IC50 was 9.5 µM.

Take `N=C(NCCCSC[C@H]1O[C@@H](n2cnc3c(N)ncnc32)[C@H](O)[C@@H]1O)NC1CCCC1` [Compound 6c, 1-(3-((((2S,3S,4R,5R)-5-(6-amino-9H-purin-9-yl)-3,4-dihydroxytetrahydrofuran-2-yl)methyl)thio)propyl)-3-cyclopentylguanidine]: inhibition against PRMT1 [1] (setting [3]) was half-maximal at 0.22 ± 0.016 µM (IC50). In addition, the Ki on PRMT1 [1] was 0.11 ± 0.008 µM.

As for `N=C(NCCCSC[C@H]1O[C@@H](n2cnc3c(N)ncnc32)[C@H](O)[C@@H]1O)NCC1CCCCC1` [Compound 6e, 1-(3-((((2S,3S,4R,5R)-5-(6-amino-9H-purin-9-yl)-3,4-dihydroxytetrahydrofuran-2-yl)methyl)thio)propyl)-3-(cyclohexylmethyl)guanidine], inhibition on PRMT1 [1] (setting [3]) was half-maximal at 0.12 ± 0.026 µM (IC50). Further, the Ki on PRMT1 [1] is 0.06 ± 0.013 µM.

On to `N=C(NCCCSC[C@H]1O[C@@H](n2cnc3c(N)ncnc32)[C@H](O)[C@@H]1O)NCc1ccc(Br)cc1` [Compound 6n, 1-(3-((((2S,3S,4R,5R)-5-(6-amino-9H-purin-9-yl)-3,4-dihydroxytetrahydrofuran-2-yl)methyl)thio)propyl)-3-(4-bromobenzyl)guanidine], for which the concentration for half-maximal inhibition (IC50) against PRMT1 [1] (setting [4]) is 0.26 ± 0.07 µM. Besides, at PRMT1 [1], the Ki is 0.052 ± 0.014 µM. For the same compound, on SETD7, the inhibition at 100 µM was > 50%.

With `N=C(NCCCSC[C@H]1O[C@@H](n2cnc3c(N)ncnc32)[C@H](O)[C@@H]1O)NC1CCCCC1` [Compound 6d, 1-(3-((((2S,3S,4R,5R)-5-(6-amino-9H-purin-9-yl)-3,4-dihydroxytetrahydrofuran-2-yl)methyl)thio)propyl)-3-cyclohexylguanidine], at PRMT1 [1] (setting [3]), half-maximal inhibition (IC50) required 0.11 ± 0.048 µM. Also, on PRMT1 [1], the Ki was 0.055 ± 0.024 µM.

In general, IC50 refers to the concentration at which inhibition is half-maximal. For orientation: inhibition means the relative decrease from the control value, in per cent.
